The IC50 is the point on the concentration scale where inhibition reaches its midpoint. As a reminder, the inhibition is the change of the read-out against control, counted positive when it falls.

These results are taken from ChEMBL document CHEMBL3632482, “Nitrogen Oxide Inhibitory Trimeric and Dimeric Carbazole Alkaloids from Murraya tetramera” (J Nat Prod, 2015).

Series [1] in a line: Antiinflammatory activity in mouse BV2 cells assessed as inhibition of LPS-stimulated nitric oxide production after 24 hrs by Griess assay. In kind it is functional, cell-based. The settings on record: BV-2, 24 h.
Series [2] is described as follows: Cytotoxicity against mouse BV2 cells assessed as effect on cell viability after 24 hrs by MTT assay. In kind it is cell-based. Conditions: bv-2, 24 h.
Series [3] in a line: Antiinflammatory activity in mouse BV2 cells assessed as inhibition of LPS-stimulated nitric oxide production at 40 uM after 24 hrs by Griess assay relative to control. The settings on record: BV-2, 24 h. In kind it is functional. A general note: Griess reagent forms a coloured azo dye with nitrite.
Series [4] is described as follows: Cytotoxicity against mouse BV2 cells assessed as cell viability at 40 uM after 24 hrs by MTT assay relative to control. In kind it is cell-based, BV-2. Conditions: read-out: Activity. (Tetrazolium assays rely on reduction of a dye to a coloured formazan, in cell work by metabolically active cells.)

In the case of `COn1c2ccccc2c2cc(COCc3ccc4c(c3)c3cc(Cc5ccc6c(c5)c5ccccc5n6OC)ccc3n4OC)ccc21`, the IC50 in series [1] amounted to 27.2 µM. For the same compound, the Activity result in series [2] was “Non-toxic”. As for `COn1c2ccccc2c2cc(COCc3ccc4c(c3)c3ccccc3n4Cc3ccc4c(c3)c3ccccc3n4OC)ccc21`, the Activity result in series [2] is listed as “Non-toxic”. Moreover, the inhibition at 40 µM in series [3] was under 20%. In the case of `COc1cc(Cc2c(O)c(C)cc3c2[nH]c2ccccc23)cc2c1[nH]c1ccccc12`, the viability at 24 h, 40 µM in series [4] was under 80%.

`COc1cc(Cc2c(C)cc3c([nH]c4ccccc43)c2OC)cc2c1[nH]c1ccccc12`: the IC50 in series [1] was determined as 11.4 µM. Moreover, the Activity entry in series [2] is on record as “Non-toxic”. As for `COc1cc(C)c(Cc2ccc3[nH]c4ccccc4c3c2)c2c1[nH]c1ccccc12`, in series [1], the IC50 is 26.7 µM. The Activity result in series [2] is listed as “Non-toxic”. Turning to `COc1cc(Cc2ccc3[nH]c4c(OC)c(O)c(C)cc4c3c2)cc2c1[nH]c1ccccc12`, the viability at 24 h, 40 µM in series [4] was under 80%. In the case of `COc1cc(Cn2c3ccccc3c3cc(C)c(O)c(OC)c32)cc2c1[nH]c1ccccc12`, the viability at 24 h, 40 µM in series [4] is under 80%. Same read-out and setting: under `COc1c(O)c(C)cc2c3ccccc3n(Cc3ccc4[nH]c5ccccc5c4c3)c12` stands under 80%. Still for that read-out and setting: under `COc1cc(Cn2c3ccccc3c3cc(C)c(O)cc32)cc2c1[nH]c1ccccc12` stands under 80%. As to `COc1cc(Cn2c3ccccc3c3cc(C=O)ccc32)cc2c1[nH]c1ccccc12`, the IC50 in series [1] is 17.9 µM. The Activity entry in series [2] is “Non-toxic”.

On to `COc1ccc2c([nH]c3c(-c4c(O)c(C)cc5c4[nH]c4ccccc45)c(O)c(C)cc32)c1C=O`, for which the viability at 24 h, 40 µM in series [4] was under 80%. As for `COc1ccc2c([nH]c3c(-c4c(O)c(C)cc5c4[nH]c4c(C=O)c(OC)ccc45)c(O)c(C)cc32)c1C=O`, the viability at 24 h, 40 µM in series [4] is under 80%. Regarding `COn1c2ccccc2c2cc(COCc3ccc4[nH]c5ccccc5c4c3)ccc21`, in series [1], the half-maximal inhibitory concentration (IC50) is 21.9 µM. Moreover, in series [2], the Activity result is “Non-toxic”. As to `COc1cc(Cn2c3ccccc3c3cc(CO)cc(OC)c32)cc2c1[nH]c1ccccc12`, in series [1], the concentration for half-maximal inhibition (IC50) is 19.3 µM. Moreover, in series [2], the Activity result is reported as “Non-toxic”. Regarding `COc1cc(Cn2c3ccccc3c3cc(C=O)cc(OC)c32)cc2c1[nH]c1ccccc12`, the IC50 in series [1] was 38.5 µM. In addition, the Activity result in series [2] is “Non-toxic”.

With `COn1c2ccccc2c2cc(COCc3ccc4c(c3)c3ccccc3n4OC)ccc21`, the IC50 in series [1] is 11.2 µM. Moreover, the Activity entry in series [2] is listed as “Non-toxic”. For `COc1cc(Cc2c(C)cc(OC)c3[nH]c4ccccc4c23)cc2c1[nH]c1ccccc12`, in series [1], the half-maximal inhibitory concentration (IC50) turned out to be 18.6 µM. In series [2], the Activity result is “Non-toxic”. As to `O=c1c(O)c(-c2ccc(O)c(O)c2)oc2cc(O)cc(O)c12` [QUERCETIN], the IC50 in series [1] was found to be 17.4 µM.
